One data set deals with HL-60 cells. Description: MTT assay, cell viability of HL-60 cells. Format: cell-based. The conditions noted are these: Homo sapiens, 48 h, mean ± s.d., n = 3, read-out: IC50 values of compounds for leukemia cells. On the technique in general: Tetrazolium dyes change colour on reduction, which living cells bring about.
Another data set deals with U937 cells. Description: MTT assay, cell viability of U937 cells. Format: cell-based. Particulars: Homo sapiens, U-937, 48 h, mean ± s.d., n = 3, read-out: IC50 values of compounds for leukemia cells.
Another data set has as its system KG-1 cells. Description: MTT assay, cell viability of KG-1 cells. The class given is cell-based. Particulars: Homo sapiens, 48 h, mean ± s.d., n = 3, read-out: IC50 values of compounds for leukemia cells.
The subject of data set [1] is Hsp70 level in HL-60 and K562 cells. Description: Western blot of Hsp70 and Hsp90 levels. Format: cell-based, human. Particulars: cells treated 24 h. As for the experimental part:
Because Az-O3-GD promotes caspase activation in leukemia cells, it was anticipated that procaspase-9, procaspase-3 and PARP would be cleaved in treated cells. To test this possibility, HL-60 and K562 cells were exposed to Az-O3-GD, along with Az and GD as controls and western blot analysis was then carried out. […] Although Az-O3-GD upregulates Hsp70, the presence of the Hsp70 inhibitor in this hybrid causes its cytotoxicity against leukemia cells to be higher than that of GD. Finally, we examined the effect of Az-O3-GD on AIF-mediated caspase-independent apoptosis. To this end, HL-60 and K562 cells were incubated with Az-O3-GD for 24 h.
(§1) Western blot analysis. […] peroxidase-conjugated goat anti-rabbit IgG (1:2000, Santa Cruz Bio Technology) and goat anti-mouse IgG (1:2000, Santa Cruz Bio Technology) were used as the secondary antibodies. The blots were developed by using a West-ZOL® plus Western Blot Detection System (Intron Biotechnology Inc., South Korea). Western blot signals were analyzed by using a G:BOX Chemi Fluorescent & Chemiluminescent Imaging System.
In general terms: A western blot detects proteins with antibodies after separation by electrophoresis.

Data set [2] has as its system caspase activity of HL-60 and K562 cells. Description: Caspase activity assay with Ac-DEVD-pNA in cell lysates. The class given is cell-based, human. The conditions noted are these: lysates of cells treated 24 h. As for the experimental part: Because Az inhibits the association of Hsp70 with Apaf-1, caspase associated proteolytic activities should increase in cells treated with Az. To determine whether this event occurs, caspase activities of HL-60 and K562 cells treated with Az were measured by using the colorimetric substrate, Ac-DEVD-pNA (pNA, p-nitroaniline). […] We also examined whether leukemia cells are protected from the effect of Az by ZVAD-FMK (benzyloxycarbonyl-Val-Ala-Asp(OMe) fluoromethyl ketone, a cell-permeable inhibitor of pan-caspases). HL-60 and K562 cells were pre-incubated with ZVAD-FMK for 3 h and subsequently exposed to Az.
HL-60 and K562 cells treated with each compound for 24 h were lysed in a buffer containing 50 mM HEPES (pH 7.4), 5 mM CHAPS and 5 mM DTT. Assay buffer containing 20 mM HEPES (pH 7.4), 0.01% CHAPS, 5 mM DTT and 2 mM EDTA was added to cell lysates. Caspase activity was measured in the absence or presence of acetyl-DEVD-pNA (200 μM) (Sigma-Aldrich) by using a microplate reader (monitored at 405 nm).

A further data set deals with Jurkat cells. Description: MTT assay, cell viability of Jurkat cells. Format: cell-based. The conditions noted are these: Homo sapiens, 48 h, mean ± s.d., n = 3, read-out: IC50 values of compounds for leukemia cells.
Data set [3] relates to human leukemia cells (HL-60, KG-1, THP-1, U937, Jurkat and K562 cells). Description: MTT assay, all tested leukemia cells (summary statements). Particulars: all tested leukemia cells, MTT, compared with Az, GD and imatinib. As for the experimental part:
To assess anti-leukemia activity of Az, several human leukemia cells (HL-60 cells, acute myeloid leukemia; Jurkat cells, acute T-lymphocytic leukemia; KG-1 cells, acute myeloid leukemia; U937 cells, acute myeloid leukemia; THP-1 cells, acute monocytic leukemia; K562 cells, chronic myeloid leukemia) were incubated with Az for 48 h. […] An MTT assay was then performed to measure cell viabilities.
Cells were exposed to each compound (a HCl salt form) at various concentrations for indicated time periods (24 or 48 h) in culture media. MTT assays were conducted according to known procedures. The absorbance at 570 nm was determined by employing a microplate reader (TECAN, Infinite® 200 PRO).

The next data set concerns THP-1 cells. Description: MTT assay, cell viability of THP-1 cells. Format: cell-based. The conditions noted are these: Homo sapiens, 48 h, mean ± s.d., n = 3, read-out: IC50 values of compounds for leukemia cells.
The next data set concerns K562 cells. Description: MTT assay, cell viability of K562 cells. The class given is cell-based. The conditions noted are these: Homo sapiens, 48 h, mean ± s.d., n = 3, read-out: IC50 values of compounds for leukemia cells.
For data set [4], the system named is AIF translocation in HL-60 and K562 cells. Description: AIF translocation to the nucleus (western blot, immunocytochemistry). The class given is cell-based, human. Particulars: 24 h; 2 μM for Az-O3-GD.
Excerpt: Apoptosis-inducing factor (AIF) is known to be translocated from the cytosol to the nucleus during caspase-independent apoptosis (Supplementary Fig. S8b)[39]. In addition, it is also known that Hsp70 interacts with AIF directly and this interacting event results in blocking translocation of AIF to the nucleus and, in turn, prevents caspase-independent apoptosis. Because of these phenomena, we tested if Az has an influence on AIF-mediated caspase-independent apoptosis. To probe this issue, HL-60 and K562 cells were exposed to Az and the levels of AIF in the cytosolic and nuclear fractions were then determined. AIF translocation to the nucleus was not observed in Az-treated cells, based on western blot analysis (Fig. 4d). Additional evidence to support this conclusion was obtained from immunocytochemical analysis of leukemia cells treated with Az (Fig. 4d).
as §1
Immunocytochemistry. […] Cell images were analyzed using the ZEN 2011 software.

Data set [5] relates to HL-60 and K562 cells. Description: Flow cytometry, fluorescein-annexin V and PI staining. Format: cell-based, human. Particulars: 24 h; 10 µM Az, 10 µM GD or 4 µM Az-O3-GD. As for the experimental part:
(§2) To determine whether Az promotes leukemia cell death via apoptosis, acute leukemia HL-60 and chronic leukemia K562 cells were independently incubated with Az. The treated cells were then exposed to a mixed solution of fluorescein-annexin V and propidium iodide (PI) and flow cytometry analysis was conducted. […] The size of the treated cells was also assessed by using flow cytometry. […] We also investigated if the mitochondrial membrane potential in cells treated with Az is disrupted. To test this possibility, HL-60 and K562 cells were exposed to Az and subsequently stained with a membrane potential sensitive JC-1 probe. […] This serves as another evidence for apoptosis induced by Az.
HL-60 and K562 cells were incubated with each compound for 24 h in culture media. Cells were re-suspended with 500 μL binding buffer (10 mM HEPES, […] and 2.5 mM CaCl2, pH 7.5) and then incubated with the FITC-annexin V apoptosis detection kit with PI according to the protocol provided by the manufacturer. Flow cytometry was carried out by using a BD FACSVerse™ instrument (BD Biosciences) and the data were analyzed by using a FlowJo™ software (BD Biosciences).

The test system of data set [6] is HL-60 and K562 cells. Description: Flow cytometry, JC-1 mitochondrial membrane potential. Format: cell-based, human. Particulars: 24 h; 10 µM Az or 4 µM Az-O3-GD. As for the experimental part: as §2
JC-1 staining: HL-60 and K562 cells were treated with each compound and then with 2.5 μg/mL JC-1 (Anaspec) in PBS for 15 min. Flow cytometry was conducted with a BD FACSVerse™ instrument (the red fluorescence signal: λex = 550 nm, λem = 600 nm; the green fluorescence signal: λex = 485 nm, λem = 535 nm) and the data were analyzed using a FlowJo™ software.
Background: Flow cytometry measures light scatter and fluorescence of single cells or particles in a stream.

This is an account of results in article PMC5471252, “Anti-leukemia activity of a Hsp70 inhibitor and its hybrid molecules” (Scientific Reports, 2017).

A word on the IC50: it is the point on the concentration scale where inhibition reaches its midpoint. With `COc1ccc(-c2nc(-c3cc(C(F)(F)F)cc(C(F)(F)F)c3)n(Cc3ccc(C(=O)NCCCOCCOCCOCCCNC4=C5CC(C)CC(OC)C(O)C(C)C=C(C)C(OC(N)=O)C(OC)C=CC=C(C)C(=O)NC(=CC4=O)C5=O)cc3)c2-c2ccc(OC)cc2)cc1` (stereo not drawn) [Az-O3-GD], the IC50 came to 740 ± 270 nM in the data set with HL-60 cells; 1120 ± 440 nM in the data set with U937 cells; 1310 ± 300 nM in the data set on KG-1 cells; 570 ± 180 nM with Jurkat cells; 620 ± 270 nM in the data set on THP-1 cells; 720 ± 260 nM in the data set with K562 cells. Moreover, the “translational level of Hsp70” value in data set [1] was “upregulation of Hsp70”. For the same compound, the “caspase activity of treated cells” value in [2] is on record as “increase”. Further, the “cytotoxicity relative to the individual inhibitors” value in data set [3] was “greatly enhanced cytotoxicities”. Besides, the “AIF translocation to the nucleus” value in [4] is “does not elicit the translocation of AIF to the nucleus”. Moreover, in the data set with HL-60 and K562 cells [5], the “apoptosis, annexin V binding and PI uptake” value was “induces apoptosis”. In the data set on HL-60 and K562 cells [6], the “mitochondrial membrane potential, JC-1 red fluorescence” value is “significant decrease in the intensity of red fluorescence from JC-1”.
